Experimental findings from article PMC11056319, “Targeting PRMT9-mediated arginine methylation suppresses cancer stem cell maintenance and elicits cGAS-mediated anticancer immunity” (Nature Cancer, 2024) are described below.

In general, viability refers to a read-out of living cells in per cent, often relative to untreated cells.

In one data set the test system is Molm13. Kind of data set: cells. Set-up: Molm13 cell viability screen of virtual-screening hits, 4 days of treatment, per cent of control. The following applies: 1 uM, 4 days, 96 h. The procedure: We performed virtual screening. Briefly, we screened compounds for binding affinity to PRMT9; compounds were from the National Cancer Institute (NCI) and ZINC library (Fig. 4a,b). […] We used doses of 1 and 5 µM in a Molm13 cell-based viability assay (Extended Data Fig. 6a). […] Specifically, we assessed their effects on PRMT9 catalysis (Extended Data Fig. 6b). […] Cells were treated for 4 days with 1 or 5 μM compounds. For each compound, the number represents its library ID. Experiments were triplicated; P values were derived from t tests. b, R493 methylation assay. […] Catalytic activity was assessed by anti-R493 antibody. Synthesized R493me peptide as positive control. c, Catalysis screen of top 20 compounds. PRMT9 protein was pretreated with indicated compound (10 μM), then incubated with PABPC1 peptides and SAM. d, e, Catalytic activity of indicated compounds based on R493 methylation assay (d). Inhibition curves were calculated based on intensity of dots and normalized to DMSO (e). […] LD2 is designed based on NSC641396 (g). Docking model of NSC641396 in the catalytic pocket (f). h, IC50 analysis of LD2 in B-NHL lines. Cells were treated for 4 days with LD2. […] Cells were treated with a dose titration of 0.5–40 μM LD2 for 48 hr. The inhibition activity of LD2 to PRMT9 (right red curve) was evaluated by calculating the normalized PABPC1 R493 methylation signal. The inhibition activity of LD2 to PRMT5 (right blue curve) was evaluated by calculating the normalized SmB’B’ methylation signal (supplementary Fig. 2). k, Vina docking of LD2 with PRMT9, PRMT5, CARM1 or PRMT7 was performed, and the average docking scores (kcal/mol, with standard deviation) were shown. l, Molecular dynamics simulation analyses of LD2 with PRMT9 or PRMT5.
In the case of `OC(COc1cccc2ccccc12)CN1CCN(c2ccc(Cl)cc2)CC1` (stereo not shown) [NSC91397], the “% viability” value is given as 148.7%.

Still in this data set, the particulars now being: 5 uM, 4 days, 96 h.
As to `OC(COc1cccc2ccccc12)CN1CCN(c2ccc(Cl)cc2)CC1` (stereo not shown) [NSC91397], the “% viability” value was 145.8%.

Staying with this data set, now noted: Homo sapiens, MOLM-13, 96 h, 4 days.
Turning to `Cc1c(O)ccc2c(O)c(NC(=O)c3ccc4c(c3)CCC(C)(C)O4)c(=O)oc12` [NSC5157], the viability at 1 µM was 94.6%.
For `Cc1ccc(NC(=S)NC(=O)c2ccccc2)cc1NC(=S)NC(=O)c1ccccc1` [NSC5856], the viability at 1 µM was 91.4% and the viability at 5 µM amounted to 91.5%.
In the same order, the values of `c1ccc(-n2c3ccccc3c3ccccc32)cc1` [NSC10416] are 99.1% and 81.7%.
In the same order, the values of `O=C1C(=Nc2cccc(Cl)c2)CC(c2ccc(Cl)cc2)N1c1cccc(Cl)c1` (stereo not shown) [NSC13294] are 98.3% and 97.9%.
For `CCN(CC)c1ccc(/C=C/c2cc(-c3ccccc3)c3ccccc3n2)cc1` [NSC13487] the same measures were 93.3% and 94.8%.
Consider `Clc1ccccc1/C=C/c1ccnc2ccccc12` [NSC15784], for which the viability at 1 µM is 85.7% and the viability at 5 µM was 81.7%.
In the case of `CC(=O)Oc1ccc2cc(-c3ccccc3)c(=O)oc2c1` [NSC17055], the viability at 5 µM was 102%.
In the case of `Cn1ncc2c(Nc3ccccc3Cl)nc(Nc3ccccc3Cl)nc21` [NSC19061], the viability at 1 µM turned out to be 158%.
Take `COC(=O)[C@@H]1[C@H](O)[C@H](C)[C@H](O)[C@H](C)/C=C\C=C(/C)C(=O)Nc2c(C)c(OC(C)=O)c3c(c2O)C(=O)C(C)=C2OCOC(=C23)/C(C)=C/[C@@](C)(O)[C@H](O)[C@@H](C)[C@H]1O` [NSC19990]: the viability at 1 µM was found to be 68.6% and the viability at 5 µM came to 83.8%.
As for `C[C@H]1CC[C@@]2(C)[C@@H](CC[C@@H]3[C@@H]2CC[C@]2(C)[C@@H](O)CC[C@@H]32)C1` [NSC21603], the viability at 5 µM worked out at 96.5%.
On to `c1ccc(Nc2cccc3c(Nc4ccccc4)cccc23)cc1` [NSC24032], for which the viability at 1 µM came to 120%.
Regarding `c1ccc(-c2nc(-c3nccc4ccccc34)oc2-c2ccccc2)cc1` [NSC25457], the viability at 5 µM was 110%.
Consider `Cc1cc(O)c(C(C)C)cc1NC(=O)Nc1cccc2ccccc12` [NSC32673], for which the viability at 1 µM was determined as 90.3% and the viability at 5 µM was found to be 45.8%.
`COc1cc2c(cc1OC)C(=O)Cc1ccc3c(c1CN(C)CC2)OCO3` [NSC32984]: the viability at 1 µM stood at 137%.
Still for that read-out and setting: for `Cc1cc(O)c(C(C)C)cc1N=Cc1cc([N+](=O)[O-])ccc1O` [NSC33472] the value was 120%; for `O=C(Nc1cccc(-c2ccccc2)c1)N1CCN(C(=O)Nc2cccc(-c3ccccc3)c2)CC1` [NSC37553], 96.2%.
As to `O=C1c2cccc(Oc3ccccc3)c2C(=O)c2cccc(Oc3ccccc3)c21` [NSC37627], the viability at 1 µM is 144% and the viability at 5 µM came out at 151%.
On to `CN1CCN(C(=O)Nc2cccc(-c3ccccc3)c2)CC1` [NSC39352], for which the viability at 1 µM worked out at 96.7%.
For the compound `COc1ccc2nc(-c3ccc(Cl)cc3)cc(C(=O)O)c2c1` [NSC39984], the viability at 1 µM was 76.8% and the viability at 5 µM was 79.5%.
For the compound `Cc1ccc2c(c1)Sc1c(ccc3ccccc13)N2` [NSC40273], the viability at 5 µM worked out at 102%.
Regarding `O=C(O)c1cc2ccccc2cc1Nc1ccccc1` [NSC40275], the viability at 1 µM was determined as 116%.
With `O=C(Nc1cccc([N+](=O)[O-])c1)c1ccc2ccccc2c1O` [NSC50648], the viability at 1 µM is 81% and the viability at 5 µM turned out to be 62.1%.
In the same order, the values of `COc1ccc(NC(=O)c2cc3ccc4c5ccccc5[nH]c4c3cc2O)cc1` [NSC50654] are 127% and 134%.
For `Brc1ccc(-c2csc(Nc3nc(-c4ccc(Br)cc4)cs3)n2)cc1` [NSC55691], the viability at 5 µM came to 114%.
`Cc1cc(N=Nc2c(O)c3ccccc3[nH]c2=O)ccc1N=Nc1ccc(C(=O)N(C)C)cc1` [NSC58052]: the viability at 1 µM is 96% and the viability at 5 µM is 80.5%.
With `CC(=O)O[C@H]1CC[C@@]2(C)[C@@H](CC[C@@H]3[C@@H]2CC(=O)[C@@]2(C)[C@H]3C[C@@H]3CC(C)=CC(=O)[C@@H]32)C1` [NSC59620], the viability at 5 µM was 93.6%.
For `Nc1ccc(-c2nc3nc(N)nc(N)c3nc2-c2ccc(N)cc2)cc1` [NSC61642], the viability at 5 µM turned out to be 116%.
With `Cc1cccc2cc3cccc(C)c3nc12` [NSC61888], the viability at 1 µM came to 144% and the viability at 5 µM came out at 134%.
With `O=C(Nc1ccc(C2=NCCCN2)cc1)Nc1ccc(C2=NCCCN2)cc1` [NSC63680], the viability at 5 µM was determined as 75.2%.
For `O=C(Nc1ccc(C2=NCCN2)cc1)c1ccc(Cl)c(C(=O)Nc2ccc(C3=NCCN3)cc2)c1` [NSC67436], the viability at 1 µM came out at 95.2% and the viability at 5 µM turned out to be 81.3%.
In the same order, the values of `O=[N+]([O-])c1ccc2[nH]c3nc4ccccc4nc3c2c1` [NSC78697] are 169% and 157%.
In the same order, the values of `COc1ccc2c3c([nH]c2c1)[C@H]1C[C@H]2[C@H](C[C@@H](O)[C@H](OC)[C@H]2CO)CN1CC3` [NSC80137] are 82.2% and 75.6%.
Turning to `N#Cc1ccc(NC(=O)Nc2ccc(Oc3ccc(NC(=O)Nc4ccc(C#N)cc4)cc3)cc2)cc1` [NSC80734], the viability at 5 µM is 67.2%.
For the compound `O=C(/C=C/C(=O)N1CCc2ccccc2C1)N1CCc2ccccc2C1` [NSC87838], the viability at 1 µM was 92.3% and the viability at 5 µM is 92.6%.
For `OC(COc1cccc2ccccc12)CN1CCN(c2ccccc2Cl)CC1` (stereo not shown) [NSC91396] the same measures were 147% and 143%.
In the same order, the values of `OC(COc1cccc2ccccc12)CN1CCN(c2ccccc2)CC1` (stereo not shown) [NSC91398] are 59.8% and 60.9%.
For `Cc1ccc(N2CCN(CC(O)COc3cccc4ccccc34)CC2)cc1` (stereo not shown) [NSC91402] the same measures were 156% and 145%.
On to `O=C(/C=C/c1ccc(O)c(O)c1)O[C@@H]1C[C@@](OC(=O)/C=C/c2ccc(O)c(O)c2)(C(=O)O)C[C@@H](O)[C@@H]1O` [NSC91529], for which the viability at 1 µM came out at 110%.
On to `C[C@]12C[C@H](O)[C@H]3[C@@H](CCC4=CC(=O)CC[C@@]43C)[C@@H]1CC[C@@H]2c1csc(-c2ccccc2)n1` [NSC93354], for which the viability at 1 µM was 91.9% and the viability at 5 µM was determined as 69.1%.
For `CC[C@@]1(O)C(=O)OCc2c1cc1n(c2=O)Cc2cc3ccccc3nc2-1` [NSC94600] the same measures were 2.48% and 1.54%.
For `CC(=O)O[C@H]1CC[C@]2(C)C(=CC[C@H]3[C@H]4C[C@H]5O[C@]6(CC[C@H](C)CN6)[C@H](C)[C@@H]5[C@]4(C)CC[C@@H]32)C1` [NSC96021] the same measures were 102% and 87.9%.
On to `c1cc2c3c(cccc3c1)NC1(CCC3(CC1)Nc1cccc4cccc(c14)N3)N2` [NSC97920], for which the viability at 1 µM is 59.1% and the viability at 5 µM is 8.91%.
Consider `Cc1cc2cc3c(=O)[nH]c(=O)[nH]c3nc2cc1C` [NSC109174], for which the viability at 5 µM amounted to 79.9%.
For the compound `OC(COc1cccc2ccccc12)CN1CCN(c2ccc(Cl)cc2)CC1` (stereo not shown) [NSC111210], the viability at 1 µM was determined as 160% and the viability at 5 µM was found to be 139%.
For `Oc1ccc2ccccc2c1C=Nc1ccccc1` [NSC111846] the same measures were 77% and 84.6%.
`Oc1ccccc1N=Cc1c(O)ccc2ccccc12` [NSC111847]: the viability at 5 µM was 85.7%.
With `Oc1ccc(N=Cc2c(O)ccc3ccccc23)cc1` [NSC111848], the viability at 1 µM was 93.1% and the viability at 5 µM stood at 74.1%.
In the same order, the values of `c1ccc(-c2nc(-c3ccccn3)nc(-c3ccccn3)n2)nc1` [NSC112125] are 85.4% and 81.8%.
Consider `c1ccc(-c2ccc(-c3nccc4ccccc34)[nH]2)cc1` [NSC116644], for which the viability at 5 µM was 88.3%.
In the case of `Cc1ccc(-c2nc(-c3nccc4ccccc34)oc2-c2ccccc2)cc1` [NSC116702], the viability at 1 µM amounted to 87.8% and the viability at 5 µM was found to be 150%.
For `O=C(CC1C=Cc2ccccc2N1C(=O)c1ccccc1)c1ccccc1` (stereo not shown) [NSC116709] the same measures were 90.2% and 72.7%.
Consider `NC1=NC(c2ccc(Cl)cc2)N(c2ccc(S(N)(=O)=O)cc2)C(N)=N1` (stereo not shown) [NSC117268], for which the viability at 1 µM turned out to be 90.3%.
As for `O=C(O)c1ccccc1-c1ccccc1C(=O)Nc1ccc2c(c1)nc(O)c1ccccc12` [NSC127133], the viability at 1 µM worked out at 99% and the viability at 5 µM came out at 102%.
In the same order, the values of `Clc1ccccc1-c1nc2ccccc2[nH]1` [NSC128751] are 80.4% and 80%.
